Data from BindingDB's records for doi:10.1016/j.bmcl.2011.01.024 (Amira Pharmaceuticals, 2011).

Assay: Inhibition of human prostanoid DP2 receptor in human whole bood assessed as eosinophil shape change preincubated for 15 mins before addition of PGD2 measured after 5 mins by FACS analysis

Row | Compound | IC50
1 | CCN(Cc1cc(C(F)(F)F)ccc1-c1cc(CC(=O)O)ccc1OC)C(=O)OCc1ccc(Cl)cc1 | 6 nM
2 | COC(=O)N(Cc1ccccc1)Cc1cc(C(F)(F)F)ccc1-c1cc(CC(=O)O)ccc1OC | 22 nM
3 | CCN(Cc1cc(C(F)(F)F)ccc1-c1cc(CC(=O)O)ccc1OC)C(=O)OC | 8 nM
4 | COC(=O)N(CCc1ccccc1)Cc1cc(C(F)(F)F)ccc1-c1cc(CC(=O)O)ccc1OC | 34 nM
5 | COc1ccc(CC(=O)O)cc1-c1ccc(C(F)(F)F)cc1CNC(=O)OCc1ccccc1 | 709 nM
6 | COc1ccc(CC(=O)O)cc1-c1ccc(C(F)(F)F)cc1CN(C)C(=O)OCc1ccccc1 | 9 nM
7 | CCN(Cc1cc(C(F)(F)F)ccc1-c1cc(CC(=O)O)ccc1OC)C(=O)OCc1ccccc1Cl | 7 nM
8 | CCN(Cc1cc(C(F)(F)F)ccc1-c1cc(CC(=O)O)ccc1OC)C(=O)OCc1cccc(Cl)c1 | 7 nM
9 | CCN(Cc1cc(C(F)(F)F)ccc1-c1cc(CC(=O)O)ccc1OC)C(=O)OCc1cc(F)cc(F)c1 | 5 nM
